Source: patent US7935680B2, “Methods for modulating the axonal growth of central nervous system neurons” (Children's Medical Center Corporation, priority 1997, dated 2011)
Entries after “also recorded” stand apart in the source; their conditions may differ.

B1: ADA: exogenous adenosine deaminase enzyme (protein, UniProt P00813 2-363, looked up)
Adenosine deaminase: AQTPAFDKPKVELHVHLDGSIKPETILYYGRRRGIALPANTAEGLLNVIGMDKPLTLPDFLAKFDYYMPAIAGCREAIKRIAYEFVEMKAKEGVVYVEVRYSPHLLANSKVEPIPWNQAEGDLTPDEVVALVGQGLQEGERDFGVKARSILCCMRHQPNWSPKVVELCKKYQQQTVVAIDLAGDETIPGSSLLPGHVQAYQEAVKSGIHRTVHAGEVGSAEVVKEAVDILKTERLGHGYHTLEDQALYNRLRQENMHFEICPWSSYLTGAWKPDTEHAVIRLKNDQANYSLNTDDPLIFKSTLDTDYQMTKRDMGFTEEEFKRLNINAAKSSFLPEDEKRELLDLLYKAYGMPPSASAGQNL

Columns and labels:
Format in all cases: cell-based
[1] = system: goldfish retinal ganglion cells; assay: Axonal outgrowth from dissociated goldfish retinal ganglion cell cultures; conditions: for EC50: goldfish RGCs, 6 days, estimated from dose-response curves; for outgrowth at higher concentrations: concentrations above those giving the maximal response; for axonal outgrowth activity: tested at concentrations between 1-100 μM
Procedure: Axogenesis factor-1 was obtained essentially as described in Schwalb et al., 1995, and Schwalb et al., Neuroscience, 72: 901-910, 1996, the contents of which are incorporated herein by reference). Optic nerves were dissected, cut into fragments 1 mm in length, and incubated in a ratio of 6 nerves in 3 ml of either L-15 media (Gibco BRL) or phosphate-buffered saline (Gibco BRL). After 3-4 hours, nerve fragments were removed by filtering through a 0.22 μm pore low protein-binding filter (Gelman). A low molecular weight fraction of the conditioned media was prepared by ultrafiltration, first with a molecular weight cut-off of 3 kDa (Amicon Centriprep-3), then with a cut-off of 1 kDa (Filtron). The filtrate was used as a positive control at 20-30% final concentration. […] Goldfish (Comet Variety, Mt. Parnell Fisheries, Mt. Parnell Pa.), 6-10 cm in length, were dark-adapted and their retinas dissected. Retinas were incubated with papain (20 μg/ml), activated with cysteine (2.8 mM) for 30 minutes at room temperature, then dissociated by gentle trituration. […] Neuroscience 15: 5514-5625, 1995, the contents of which are incorporated herein by reference). […] Cells were maintained at 21° C. in serum free, defined media containing insulin, selenium, transferrin, bovine serum albumin, catalase, superoxide dismutase, hormones, and vitamins in Eagle's L-15 media as described in Schwalb et al., 1995, the contents of which are incorporated herein by reference). Dissociated cultures of purified rat retinal ganglion cells were prepared by immunopanning as described in Barres et al., Neuron, 1: 791-803, 1988, the contents of which are incorporated herein by reference). In brief, retinas from postnatal day 8 Sparague-Dawley rats were dissociated using papain activated with cysteine. Macrophages were removed by incubation with an anti-rat macrophage antibody (Accurate) followed by immunopanning with an anti-rabbit 1gG antibody. Ganglion cells were isolated by immunopanning with an anti-Thy-1 antibody, then dislodged with trypsin for use in low-density cultures. Rat retinal ganglion cells were maintained at 37° C. in a CO2 incubator using the same medium described above except for the presence of 30 mM bicarbonate. In a typical experiment, samples were plated in quadruplicate in randomized positions of a 24-well plate and the code was concealed to ensure that growth was evaluated in a blinded fashion. Each experiment contained 4 wells of a negative control (media plus supplements only) and 4 wells of a positive control (a standardized AF-1 sample of known activity). […] After the completion of counting, the code was broken, the data tabulated, and means and standard errors were calculated for the 4 replicate wells of each sample using Cricket Graph (CA Associates, […].). […] Group comparisons were based upon pairwise, 2-tailed Student's t-tests. Several independent experiments were performed for most samples, as noted in the figure legends. […] Cell survival is reported as the number of viable RGCs per high-powered field.

[2] = system: goldfish retinal ganglion cells; assay: Cell survival in goldfish retinal ganglion cell cultures (viable RGCs per field)
Procedure: Goldfish (Comet Variety, Mt. Parnell Fisheries, Mt. Parnell Pa.), 6-10 cm in length, were dark-adapted and their retinas dissected. Retinas were incubated with papain (20 μg/ml), activated with cysteine (2.8 mM) for 30 minutes at room temperature, then dissociated by gentle trituration. […] Low density cultures were achieved by plating c. 5×10^3 cells/well into poly L-lysine coated, 24-well culture dishes (Costar, Cambridge, Mass.). […] In brief, retinas from postnatal day 8 Sparague-Dawley rats were dissociated using papain activated with cysteine. Macrophages were removed by incubation with an anti-rat macrophage antibody (Accurate) followed by immunopanning with an anti-rabbit 1gG antibody. Ganglion cells were isolated by immunopanning with an anti-Thy-1 antibody, then dislodged with trypsin for use in low-density cultures. Rat retinal ganglion cells were maintained at 37° C. in a CO2 incubator using the same medium described above except for the presence of 30 mM bicarbonate.
In a typical experiment, samples were plated in quadruplicate in randomized positions of a 24-well plate and the code was concealed to ensure that growth was evaluated in a blinded fashion. Each experiment contained 4 wells of a negative control (media plus supplements only) and 4 wells of a positive control (a standardized AF-1 sample of known activity). Growth and survival were assessed after 6 days for all ganglion cells in 25 consecutive fields of each well using phase contrast microscopy at 400× magnification (c. 150 ganglion cells counted per well). […] After the completion of counting, the code was broken, the data tabulated, and means and standard errors were calculated for the 4 replicate wells of each sample using Cricket Graph (CA Associates, Islandia, N.Y.). Data were normalized by subtracting the growth in the negative controls (usually 4-5%) and dividing by the net growth in the positive controls. […] Group comparisons were based upon pairwise, 2-tailed Student's t-tests. Several independent experiments were performed for most samples, as noted in the figure legends. In some cases, cell viability was assessed with the dye 5,6-carboxyfluorescein diacetate. Cell survival is reported as the number of viable RGCs per high-powered field.

GAP-43 = GAP-43 immunohistochemistry in goldfish retinal ganglion cells; conditions: immunostaining
Procedure: One hallmark of optic nerve regeneration in vivo is the enhanced expression of the membrane phosphoprotein GAP-43. To investigate whether this upregulation is induced by purines, immunohistochemistry was carried out using a polyclonal rabbit antiserum against recombinant […] GAP-43. Recombinant zebrafish GAP-43 was made by transforming E. coli with a cDNA isolated by Dr. Eva Reinhard, University of Basel, Switzerland (see Reinhard et al., Development, 120: 1757-1775, 1994, the contents of which are incorporated herein by reference) subcloned into the prokaryotic expression vector pTrcHisB (Invitrogen). The protein produced was purified by Ni^2+-NTA-affinity chromatography and used to immunize rabbits. […] Inosine produced a 5.5-fold increase in the number of intensely stained cells over L-15, whereas AF-1 produced a 8-fold increase. In all 3 cases, the intensity of GAP-43 immunostaining correlated strongly with axonal length.

Row | Molecule | outgrowth when adenosine hydrolysis is blocked ([1]; 100 μM adenosine in the presence of 10 μM DCF) | EC50 ([1]; Carassius auratus, 144 h) | Emax ([1]; Carassius auratus, normalized to AF-1 positive control, adenosine 50-100 μM, guanosine 100 μM, inosine above 25 or 50 μM, read-out: maximal response relative to the level induced by AF-1) | outgrowth at higher concentrations [1] | axonal outgrowth activity [1] | cell survival when ADA is blocked with DCF [2] | dependence of outgrowth on cell density ([1]; fixed concentration (100 μM), 3-4-fold range of cell densities) | EC50 [1] | maximal response relative to the level induced by AF-1 ([1]; normalized to AF-1 positive control, adenosine 50-100 μM, guanosine 100 μM, inosine above 25 or 50 μM) | GAP-43 levels relative to L-15 treated controls (GAP-43) | effect on outgrowth stimulated by 100 μM adenosine ([1]; exogenous ADA 0.4 U/ml) | effect on cell survival ([2]; exogenous ADA 0.4 U/ml with 100 μM adenosine)
1 | Nc1ncnc2c1ncn2[C@@H]1O[C@H](CO)[C@@H](O)[C@H]1O [adenosine] | suppress growth; also recorded: failed to stimulate growth, but caused it to decline below baseline levels | 10 to 15 µM | 60% | outgrowth decreased | stimulated almost as much outgrowth from goldfish retinal ganglion cells as AF-1 | causes adenosine to suppress growth (e, top) and survival |  |  |  |  |  | 
2 | Nc1nc2c(ncn2[C@@H]2O[C@H](CO)[C@@H](O)[C@H]2O)c(=O)[nH]1 [guanosine] |  | 20 to 30 µM |  | no obvious decrease in activity | stimulated almost as much outgrowth from goldfish retinal ganglion cells as AF-1 |  | growth is not a function of cell density; also recorded: independent of cell density | 25 µM | same maximal level of activity as adenosine | large increase in GAP-43 levels |  | 
3 | B1 |  |  |  |  |  |  |  |  |  |  | unaltered; also recorded: did not diminish axon outgrowth | did not diminish axon outgrowth stimulated by 100 μM adenosine or affect cell survival
